# From US20240269196A1, “RESPIRATORY TREATMENTS USING SALMONID OIL COMPOSITIONS” (Hofseth Biocare ASA, priority 2020, published 2024)
# Where “and” joins values, the source holds several entries; their conditions need not be identical. Equal values may be shown once. Read-outs that look alike come from different tables or passages of the source.
# How the values were obtained:
# [1] = test system: guinea pig peritoneal eosinophils; experiment: Chemotactic and chemokinetic activities to leukotriene B4 of peritoneal eosinophils after i.p. pretreatment (Boyden chamber); type: in vivo, Cavia porcellus (Guinea Pig); details: for chemokinetic (B) activity to leukotriene B4 (0.1 uM), individual animals / chemotactic (A) activity to leukotriene B4 (0.1 uM), individual animals: guinea pig peritoneal eosinophils; for inhibition of eosinophil chemotactic and chemokinetic activities: i.p. pretreatment, n=3 per dose
# Procedure: The animals used in this example were from the species Cavia porcellus (Guinea Pig). A total of 21 male guinea pigs weighing between 200-250 g were selected. These animals were manually randomized into 7 groups i.e. G1 and G2 (OmeGo Salmon oil 30 and 300 mg/kg), G3 and G4 (SEACOD 30 and 300 mg/kg), G5 and G6 were positive control (Fevipiprant 5 and 20 mg/kg) and G7 was negative control (linoleic acid 300 mg/kg) wherein each group consisted of 3 animals.
# Guinea pigs were sensitized to create mild eosinphilia by intraperitoneal injection of Polymyxin B (1 mg/animal) once a week for 6 weeks. Polymyxin B was given by dissolving it in 0.9% saline solution. Each animal was injected with 0.5 mL of 0.9% saline containing 1 mg of Polymyxin B. In week 6, in addition to the Polymyxin B, animals were injected with test items belonging to their specific group, as shown in Table 5 below.
# Animals were treated with Polymyxin B through an intraperitoneal injection. Along with Polymyxin B even the test items were given through the intraperitoneal route. In the 6th week animals were anesthetized using isoflurane and the intraperitoneal fluid was collected by injecting 50 mL of saline in the peritoneum cavity. After massaging the abdomen for 15 seconds the fluid was drained and collected in the centrifuge tubes. Around 30-35 mL of fluid was collected from each animal. This fluid was centrifuged for 10 mins (400×g 4° C.) and was resuspended in FBS (Fetal bovine serum) medium. Following this step, the fluid was recentrifuged for 10 min (400×g 4° C.) and the cell pellet was analyzed for chemotactic and chemokinetic responses of eosinophils to leukotriene B4 and cell counts using a 96-well microchemotaxis test chamber.
# Eosinophils were recovered at greater than 90% purity using a modified procedure reported by Fukusa et. al. (Increased numbers of hypodense eosinophils in the blood of patients with bronchial asthma. Am. Rev. Respir. Dis. 1985; 132:981-985).
# The animals were treated with Polymyxin B saline solution once every week for continuously 5 weeks and in the 6th week along with the Polymyxin B test item was given as per the groups. Each animal received 1 mg of Polymyxin B.
# The chemotactic and chemokinetic activities were measured by the Boyden chamber method using a 96-well microchamber and expressed as the number of eosinophils counted on the membrane filter under ×400 magnification (cells/five fields). The chemokinetic activity to leukotriene B4 was examined by placing the same concentration of leukotriene B4 (0.1 μM) in both compartments of the chamber. Viability of the eosinophils was determined by the Trypan blue dye exclusion test after incubation for 90 min. All samples were assayed in duplicate. Blood was also collected on the same day and plasma was separated and stored at −20° C. for follow-on anti-inflammatory biomarker assays.
# [2] = type: in vivo; details: for Mortality and Morbidity: No. of Incidence/No. of Animals: incidence of the observation 'No mortality/morbidity'
# Excerpt: Clinical signs were observed after test item administration and all the other days throughout the study period for all the animals. The cage side observations included (but not limited to) changes in skin and fur, eyes and mucous membranes, as well as respiratory, circulatory, autonomic and central nervous system, somatomotor activity and behavior pattern.
# Animals were weighed during randomization, at start of treatment and weekly thereafter, until the end of experimental period.
# Raw Data were processed using Statistical Software Sigma Plot 14. The mean and Standard Deviation were calculated using the Software and all data were summarized in tabular form. All continuous data like the body weight was checked for their normality and for homogeneous data, ANOVA was used.
# [3] = 20 mg (i.p.), compared to control
SMILES,"chemokinetic (B) activity to leukotriene B4 (0.1 uM), individual animals ([1]; 300 mg/kg bw i.p.)","chemotactic (A) activity to leukotriene B4 (0.1 uM), individual animals ([1]; 300 mg/kg bw i.p.)",inhibition of eosinophil chemotactic and chemokinetic activities [1],"chemokinetic (B) activity to leukotriene B4 (0.1 uM), individual animals ([1]; 5 mg/kg bw i.p.)","chemotactic (A) activity to leukotriene B4 (0.1 uM), individual animals ([1]; 5 mg/kg bw i.p.)","Maximum inhibition for chemokinesis [1, 3] [%]","Maximum inhibition for chemotaxis [1, 3] [%]","chemokinetic (B) activity to leukotriene B4 (0.1 uM), individual animals ([1]; 20 mg/kg bw i.p.)","chemotactic (A) activity to leukotriene B4 (0.1 uM), individual animals ([1]; 20 mg/kg bw i.p.)",Mortality and Morbidity: Observation ([2]; 5 mg/kg bw),Mortality and Morbidity: No. of Incidence/No. of Animals ([2]; 5 mg/kg bw),Mortality and Morbidity: Observation ([2]; 20 mg/kg bw),Mortality and Morbidity: No. of Incidence/No. of Animals ([2]; 20 mg/kg bw)
CCCCC/C=C\C/C=C\CCCCCCCC(=O)O [Linoleic acid],335 Cells/5 fields and 360 Cells/5 fields and 340 Cells/5 fields,770 Cells/5 fields and 790 Cells/5 fields and 760 Cells/5 fields,did not inhibit,,,,,,,,,,
Cc1c(CC(=O)O)c2cccnc2n1Cc1ccc(S(C)(=O)=O)cc1C(F)(F)F [Fevipiprant],,,significantly inhibited,290 Cells/5 fields (2×) and 280 Cells/5 fields,425 Cells/5 fields and 390 Cells/5 fields and 420 Cells/5 fields,51.7,68.0,160 Cells/5 fields and 175 Cells/5 fields and 165 Cells/5 fields,320 Cells/5 fields and 325 Cells/5 fields and 330 Cells/5 fields,No mortality/morbidity,03/03,No mortality/morbidity,03/03
